Assays:
Type in all cases: in vivo
[1] = test system: barnyardgrass (Echinochloa crus-galli); test: Test B flooded paddy test; details: for Plant response rating, Flood, Barnyardgrass: 250 g ai/ha, flooded paddy test, visual rating on 0 to 100 scale (0 no effect, 100 complete control) after 13 to 15 days; for Plant response rating, Barnyardgrass: Flood (flooded paddy test), 13 to 15 days; for Barnyardgrass plant response rating: Flood, 31 g ai/ha, scale 0 to 100 (0 no effect, 100 complete control)
Outline: (§1)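 2-leaf seedlings; pots flooded 3 cm over soil at treatment; cpd dosed into floodwater, depth kept constant. Greenhouse 13–15 d. Visual rating vs untreated controls, 0 = no effect, 100 = complete control.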

rice (Oryza sativa) = test: Test B flooded paddy test; details: for Plant response rating, Flood, Rice: 250 g ai/ha, flooded paddy test, visual rating on 0 to 100 scale (0 no effect, 100 complete control) after 13 to 15 days; for Plant response rating, Rice: Flood (flooded paddy test), 13 to 15 days; for Rice plant response rating: Flood, 31 g ai/ha, scale 0 to 100 (0 no effect, 100 complete control)
Outline: as §1

[2] = test system: ducksalad (Heteranthera limosa); test: Test B flooded paddy test; details: for Plant response rating, Flood, Ducksalad: 250 g ai/ha, flooded paddy test, visual rating on 0 to 100 scale (0 no effect, 100 complete control) after 13 to 15 days; for Plant response rating, Ducksalad: Flood (flooded paddy test), 13 to 15 days; for Ducksalad plant response rating: Flood, 31 g ai/ha, scale 0 to 100 (0 no effect, 100 complete control)
Outline: as §1

[3] = test system: umbrella sedge (Cyperus difformis); test: Test B flooded paddy test; details: for Plant response rating, Flood, Sedge, Umbrella: 250 g ai/ha, flooded paddy test, visual rating on 0 to 100 scale (0 no effect, 100 complete control) after 13 to 15 days; for Plant response rating, Sedge, Umbrella: Flood (flooded paddy test), 13 to 15 days; for Sedge, Umbrella plant response rating: Flood, 31 g ai/ha, scale 0 to 100 (0 no effect, 100 complete control)
Outline: as §1

[4] = test system: wheat (Triticum aestivum); test: Test A pre-/postemergence plant response
Outline: (§2)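 Both pre- and postemergence treatments are applied simultaneously, using chemicals formulated in a non-phytotoxic solvent mixture with surfactant. Postemergence plants are 2–10 cm high with one to two leaves. After approximately ten days in a greenhouse, injury is scored visually from 0 (none) to 100 (complete control) relative to untreated plants.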

[5] = test system: barnyardgrass (Echinochloa crus-galli); test: Test A pre-/postemergence plant response
Outline: as §2

[6] = test system: large crabgrass (Digitaria sanguinalis); test: Test A pre-/postemergence plant response
Outline: as §2

[7] = test system: morningglory (Ipomoea spp.); test: Test A pre-/postemergence plant response
Outline: as §2

[8] = test system: velvetleaf (Abutilon theophrasti); test: Test A pre-/postemergence plant response
Outline: as §2

[9] = test system: giant foxtail (Setaria faberii); test: Test A pre-/postemergence plant response
Outline: as §2

[10] = test system: pigweed (Amaranthus retroflexus); test: Test A pre-/postemergence plant response
Outline: as §2

corn (Zea mays) = test: Test A pre-/postemergence plant response
Outline: as §2

[11] = test system: windgrass (Apera spica-venti); test: Test B postemergence plant response; details: for Windgrass plant response rating (0 to 100 scale): 62 g ai/ha, postemergence, 0 is no effect, 100 is complete control, 13 to 15 days; for Plant response rating, Windgrass: Postemergence, scale 0 to 100 (0 no effect, 100 complete control)
Outline: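 Visual ratings from 0 (no effect) to 100 (complete control), made against controls 13–15 days after treatment, kept in a greenhouse. Compounds were applied postemergence to potted plants at the 1- to 4-leaf stage (2–18 cm).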

[12] = 62 g ai/ha, scale of 0 to 100 where 0 is no effect and 100 is complete control
[13] = 125 g ai/ha, scale 0 to 100, 0 is no effect, 100 is complete control
[14] = Postemergence, 125 g ai/ha, 0 to 100 scale where 0 is no effect and 100 is complete control
[15] = Postemergence, 500 g ai/ha, 0 to 100 scale, 0 = no effect, 100 = complete control, approx. ten days
[16] = Preemergence, 125 g ai/ha, 0 to 100 scale, 0 = no effect, 100 = complete control
[17] = Preemergence, 500 g ai/ha, visual injury, 0 to 100 scale (0 no effect, 100 complete control), approx. ten days

**Q.** With O=C1CCCC(O)=C1C(=O)c1cnc(-c2ccsc2)n(CC2CCCO2)c1=O (centres unmarked) [Compound 98] as the compound, how does the “Plant response rating, Flood, Barnyardgrass” value [1] read?
**A.** 50

**Q.** And the “Plant response rating, Barnyardgrass” value [1, 12]?
**A.** 30

**Q.** And the “Plant response rating, Barnyardgrass” value [1, 13]?
**A.** 30

**Q.** And the “Barnyardgrass plant response rating” value [1]?
**A.** 0

**Q.** What about the “Plant response rating, Flood, Rice” value (rice (Oryza sativa)) of the same compound?
**A.** 40

**Q.** What about the “Plant response rating, Rice” value (rice (Oryza sativa); [12]) of the same compound?
**A.** 0

**Q.** And the “Plant response rating, Rice” value (rice (Oryza sativa); [13])?
**A.** 0

**Q.** And the “Rice plant response rating” value (rice (Oryza sativa))?
**A.** 0

**Q.** And the “Plant response rating, Flood, Ducksalad” value [2]?
**A.** 0

**Q.** What about the “Plant response rating, Ducksalad” value [2, 12] of the same compound?
**A.** 0

**Q.** And the “Plant response rating, Ducksalad” value [2, 13]?
**A.** 0

**Q.** And the “Ducksalad plant response rating” value [2]?
**A.** 0

**Q.** And the “Plant response rating, Flood, Sedge, Umbrella” value [3]?
**A.** 75

**Q.** And the “Plant response rating, Sedge, Umbrella” value [3, 12]?
**A.** 65

**Q.** And the “Plant response rating, Sedge, Umbrella” value [3, 13]?
**A.** 75

**Q.** And the “Sedge, Umbrella plant response rating” value [3]?
**A.** 40

**Q.** What about the “Plant response rating, Wheat” value [4, 14] of the same compound?
**A.** 0

**Q.** And the “Plant response rating, Wheat” value [4, 15]?
**A.** 20

**Q.** And the “Plant response rating, Wheat” value [4, 16]?
**A.** 0

**Q.** What about the “Plant response rating, Wheat” value [4, 17] of the same compound?
**A.** 0

**Q.** And the “Plant response rating, Barnyardgrass” value [5, 14]?
**A.** 80

**Q.** And the “Plant response rating, Barnyardgrass” value [5, 15]?
**A.** 90

**Q.** And the “Plant response rating, Barnyardgrass” value [5, 16]?
**A.** 0

**Q.** What about the “Plant response rating, Barnyardgrass” value [5, 17] of the same compound?
**A.** 60

**Q.** And the “Plant response rating, Crabgrass, Large” value [6, 14]?
**A.** 90

**Q.** What about the “Plant response rating, Crabgrass, Large” value [6, 15] of the same compound?
**A.** 100

**Q.** What about the “Plant response rating, Crabgrass, Large” value [6, 16] of the same compound?
**A.** 90

**Q.** What about the “Plant response rating, Crabgrass, Large” value [6, 17] of the same compound?
**A.** 100

**Q.** And the “Plant response rating, Morningglory” value [7, 14]?
**A.** 100

**Q.** What about the “Plant response rating, Morningglory” value [7, 15] of the same compound?
**A.** 100

**Q.** And the “Plant response rating, Morningglory” value [7, 16]?
**A.** 70

**Q.** And the “Plant response rating, Morningglory” value [7, 17]?
**A.** 80

**Q.** What about the “Plant response rating, Velvetleaf” value [8, 14] of the same compound?
**A.** 100

**Q.** What about the “Plant response rating, Velvetleaf” value [8, 15] of the same compound?
**A.** 100

**Q.** What about the “Plant response rating, Velvetleaf” value [8, 16] of the same compound?
**A.** 90

**Q.** And the “Plant response rating, Velvetleaf” value [8, 17]?
**A.** 100

**Q.** What about the “Plant response rating, Foxtail, Giant” value [9, 14] of the same compound?
**A.** 70

**Q.** What about the “Plant response rating, Foxtail, Giant” value [9, 15] of the same compound?
**A.** 90

**Q.** What about the “Plant response rating, Foxtail, Giant” value [9, 16] of the same compound?
**A.** 40

**Q.** What about the “Plant response rating, Foxtail, Giant” value [9, 17] of the same compound?
**A.** 80

**Q.** What about the “Plant response rating, Pigweed” value [10, 14] of the same compound?
**A.** 100

**Q.** And the “Plant response rating, Pigweed” value [10, 15]?
**A.** 100

**Q.** What about the “Plant response rating, Pigweed” value [10, 16] of the same compound?
**A.** 100

**Q.** What about the “Plant response rating, Pigweed” value [10, 17] of the same compound?
**A.** 100

**Q.** And the “Plant response rating, Corn” value (corn (Zea mays); [14])?
**A.** 0

**Q.** And the “Plant response rating, Corn” value (corn (Zea mays); [15])?
**A.** 60

**Q.** What about the “Plant response rating, Corn” value (corn (Zea mays); [16]) of the same compound?
**A.** 0

**Q.** And the “Plant response rating, Corn” value (corn (Zea mays); [17])?
**A.** 0

**Q.** What about the “Windgrass plant response rating (0 to 100 scale)” value [11] of the same compound?
**A.** 20

**Q.** What about the “Plant response rating, Windgrass” value ([11]; 125 g ai/ha) of the same compound?
**A.** 50

**Q.** And the “Plant response rating, Windgrass” value ([11]; 250 g ai/ha)?
**A.** 70

**Q.** Which results are given for O=C1CCCC(O)=C1C(=O)c1cnc(-c2ccsc2)n(C2CCCCC2)c1=O [Compound 99]?
**A.** Plant response rating, Flood, Barnyardgrass [1]: 55; Plant response rating, Barnyardgrass [1, 12]: 20; Plant response rating, Barnyardgrass [1, 13]: 20; Barnyardgrass plant response rating [1]: 0; Plant response rating, Flood, Rice (rice (Oryza sativa)): 60; Plant response rating, Rice (rice (Oryza sativa); [12]): 0; Plant response rating, Rice (rice (Oryza sativa); [13]): 0; Rice plant response rating (rice (Oryza sativa)): 0; Plant response rating, Flood, Ducksalad [2]: 80; Plant response rating, Ducksalad [2, 12]: 40; Plant response rating, Ducksalad [2, 13]: 75; Ducksalad plant response rating [2]: 30; Plant response rating, Flood, Sedge, Umbrella [3]: 85; Plant response rating, Sedge, Umbrella [3, 12]: 50; Plant response rating, Sedge, Umbrella [3, 13]: 65; Sedge, Umbrella plant response rating [3]: 50; Plant response rating, Wheat [4, 14]: 0; Plant response rating, Wheat [4, 15]: 0; Plant response rating, Wheat [4, 16]: 0; Plant response rating, Wheat [4, 17]: 0; Plant response rating, Barnyardgrass [5, 14]: 90; Plant response rating, Barnyardgrass [5, 15]: 90; Plant response rating, Barnyardgrass [5, 16]: 10; Plant response rating, Barnyardgrass [5, 17]: 90; Plant response rating, Crabgrass, Large [6, 14]: 90; Plant response rating, Crabgrass, Large [6, 15]: 100; Plant response rating, Crabgrass, Large [6, 16]: 60; Plant response rating, Crabgrass, Large [6, 17]: 100; Plant response rating, Morningglory [7, 14]: 100; Plant response rating, Morningglory [7, 15]: 100; Plant response rating, Morningglory [7, 17]: 80; Plant response rating, Velvetleaf [8, 14]: 100; Plant response rating, Velvetleaf [8, 15]: 100; Plant response rating, Velvetleaf [8, 16]: 80; Plant response rating, Velvetleaf [8, 17]: 100; Plant response rating, Foxtail, Giant [9, 14]: 80; Plant response rating, Foxtail, Giant [9, 15]: 90; Plant response rating, Foxtail, Giant [9, 16]: 40; Plant response rating, Foxtail, Giant [9, 17]: 80; Plant response rating, Pigweed [10, 14]: 100; Plant response rating, Pigweed [10, 15]: 100; Plant response rating, Pigweed [10, 16]: 90; Plant response rating, Pigweed [10, 17]: 100; Plant response rating, Corn (corn (Zea mays); [14]): 0; Plant response rating, Corn (corn (Zea mays); [15]): 20; Plant response rating, Corn (corn (Zea mays); [16]): 0; Plant response rating, Corn (corn (Zea mays); [17]): 0; Windgrass plant response rating (0 to 100 scale) [11]: 5; Plant response rating, Windgrass ([11]; 125 g ai/ha): 10; Plant response rating, Windgrass ([11]; 250 g ai/ha): 60
